Consider 35 molecules from patent US20260055108A1, “TRIAZINE COMPOUNDS AND USES THEREOF” (HUTCHMED LIMITED, priority 2022, published 2026).

A value given as a limit tells only on which side of the number the result lay.

Assay [1] has as its system MV-4-11 cells (human acute myelogenous leukemia cell line carrying MLL-AF4 mutation). In words: Cell proliferation assay, MV-4-11 (CellTiter-Glo). The class given is cell-based. The settings on record: Homo sapiens, MV4-11, 72 h, MV-4-11 cells, 3 days treatment, CellTiter-Glo; read-out: GI50. The procedure, abridged:
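MV-4-11 cells (3000/well, IMDM with 10% HIFBS and 50 μM β-mercaptoethanol) exposed to compound at 1.100–0.001 μM final, 0.1% DMSO, for 3 days at 37°C. Viability read by CellTiter-Glo luminescence on day 0 and day 3, normalised to day-0 and untreated wells.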
(In general: Cellular ATP, detected with luciferase, serves as a proxy for viable cell number.)

The target in assay [2] is Recombinant human Menin protein (2-610) / MLL polypeptide binding (Homo sapiens (Human), UniProt O00255). In words: Menin and MLL protein binding at a molecular level (fluorescence polarization method). The settings on record: inhibition of Menin / MLL polypeptide binding. The procedure, abridged: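 Binding of recombinant human Menin (2-610) to 6-FAM-labelled MLL peptide measured by fluorescence polarization (ex 480/em 535 nm) in Tris/NaCl/TCEP buffer, pH 7.5, 2% DMSO. Compound preincubated with Menin 30 min at room temperature, then peptide added for 30 min in the dark. Tested at 1.000 down to 0.0005 μM final.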
A general note: Fluorescence polarisation rises when a labelled molecule tumbles more slowly, as on binding a larger partner.

As a reminder, the GI50 is the concentration giving 50% growth inhibition. A word on the IC50: it is the concentration at which inhibition is half-maximal.

Recombinant human Menin protein (2-610) / MLL polypeptide binding, sequence (O00255 2-610): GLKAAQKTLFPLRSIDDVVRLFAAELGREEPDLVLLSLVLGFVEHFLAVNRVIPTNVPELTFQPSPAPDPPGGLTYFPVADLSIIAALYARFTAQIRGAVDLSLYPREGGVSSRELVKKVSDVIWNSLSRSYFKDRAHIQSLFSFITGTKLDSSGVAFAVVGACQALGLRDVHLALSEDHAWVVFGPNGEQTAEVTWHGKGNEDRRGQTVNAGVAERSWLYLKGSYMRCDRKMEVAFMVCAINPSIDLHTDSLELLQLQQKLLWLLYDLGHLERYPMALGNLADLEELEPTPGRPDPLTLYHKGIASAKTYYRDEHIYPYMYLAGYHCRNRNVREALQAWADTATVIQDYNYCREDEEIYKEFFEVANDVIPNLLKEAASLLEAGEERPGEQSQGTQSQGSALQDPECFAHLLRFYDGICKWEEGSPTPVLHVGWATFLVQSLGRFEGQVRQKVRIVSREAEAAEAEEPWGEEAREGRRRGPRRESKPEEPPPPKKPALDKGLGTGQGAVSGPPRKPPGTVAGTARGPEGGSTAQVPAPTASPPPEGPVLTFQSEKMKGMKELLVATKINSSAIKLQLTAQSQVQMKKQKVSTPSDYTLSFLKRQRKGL

Take `CCN(C(=O)c1cc(F)ccc1Oc1nncnc1N1CC2(CCN(Cc3ccc4oc(C(=O)NC)cc4c3)CC2)C1)C(C)C` [Compound 74]: in assay [1], the GI50 was 176 nM. Besides, in assay [2], the IC50 was 418 nM.

For `CCN(C(=O)c1cc(F)ccc1Oc1nncnc1N1CC2(CCN(Cc3ccc4oc(C(=O)NC)c(C)c4c3)CC2)C1)C(C)C` [Compound 75], the GI50 in assay [1] amounted to 883 nM. Further, the IC50 in assay [2] is 955 nM.

As to `C[C@H]1CN(C)CCN1C(=O)c1cc(F)ccc1Oc1nncnc1N1CC2(CCN(CC3CCN(c4ccccn4)CC3)CC2)C1` [Compound 76], the GI50 in assay [1] was 932 nM. The IC50 in assay [2] was 878 nM.

Regarding `C[C@H]1COCCN1C(=O)c1cc(F)ccc1Oc1nncnc1N1CC2(CCN(CC3CCN(c4ccccn4)CC3)CC2)C1` [Compound 77], the GI50 in assay [1] stood at 60 nM. Also, the IC50 in assay [2] is 73.8 nM.

Take `CCN(C(=O)c1cc(F)ccc1Oc1nncnc1N1CC2(CCN(CC3CCN(c4ncccn4)CC3)CC2)C1)C(C)C` [Compound 78]: the GI50 in assay [1] stood at 20 nM. For the same molecule, in assay [2], the IC50 worked out at 28.8 nM.

For the molecule `CCN(C(=O)c1cc(F)ccc1Oc1nncnc1N1CC2(CCN(CC3CCN(c4ccn(C)n4)CC3)CC2)C1)C(C)C` [Compound 79], in assay [1], the GI50 was 78 nM. For the same molecule, in assay [2], the 50% inhibitory concentration (IC50) worked out at 57.7 nM.

As for `CCN(C(=O)c1cc(F)ccc1Oc1nncnc1N1CC2(CCN(CC3CCN(c4nc(C#N)co4)CC3)CC2)C1)C(C)C` [Compound 80], in assay [1], the GI50 came out at 16 nM. Moreover, in assay [2], the IC50 was determined as 6.6 nM.

In the case of `CCN(C(=O)c1cc(F)ccc1Oc1nncnc1N1CC2(CCN(CC3CCN(c4ccc(=O)n(C)n4)CC3)CC2)C1)C(C)C` [Compound 81], the GI50 in assay [1] came out at 117 nM. For the same molecule, the IC50 in assay [2] stood at 54.9 nM.

Regarding `CCN(C(=O)c1cc(F)ccc1Oc1nncnc1N1CC2(CCN(CC3CCN(c4ccn5nccc5n4)CC3)CC2)C1)C(C)C` [Compound 82], the GI50 in assay [1] turned out to be 7 nM. Besides, in assay [2], the IC50 was 2.6 nM.

For `CCN(C(=O)c1cc(F)ccc1Oc1nncnc1N1CC2(CCN(CC3CCN(c4ccc(C)nn4)CC3)CC2)C1)C(C)C` [Compound 84], in assay [1], the GI50 was 2 nM. The IC50 in assay [2] turned out to be 0.9 nM.

For the molecule `CCN(C(=O)c1cc(F)ccc1Oc1nncnc1N1CC2(CCN(CC3CCN(c4cc(C)cnn4)CC3)CC2)C1)C(C)C` [Compound 85], in assay [1], the GI50 stood at 6 nM. Besides, the IC50 in assay [2] came to 4.2 nM.

`Cc1ccc(N2CCC(CN3CCC4(CC3)CN(c3ncnnc3Oc3ccc(F)cc3-c3ccnn3C(C)C)C4)CC2)nn1` [Compound 86]: in assay [1], the GI50 worked out at 6 nM. The IC50 in assay [2] was 1.1 nM.

On to `CCN(C(=O)c1cc(F)ccc1Oc1nncnc1N1CC2(CCN(CC3CCN(c4ccc(N)nn4)CC3)CC2)C1)C(C)C` [Compound 87], for which the GI50 in assay [1] turned out to be 156 nM. Moreover, the IC50 in assay [2] was 37.2 nM.

Regarding `CCN(C(=O)c1cc(F)ccc1Oc1nncnc1N1CC2(CCN(CC3CCN(c4ccc(OC)nn4)CC3)CC2)C1)C(C)C` [Compound 88], in assay [1], the 50% growth inhibitory concentration (GI50) turned out to be 4 nM. For the same molecule, the IC50 in assay [2] was found to be 1.1 nM.

Consider `CCN(C(=O)c1cc(F)ccc1Oc1nncnc1N1CC2(CCN(CC3CCN(c4cc(OC)cnn4)CC3)CC2)C1)C(C)C` [Compound 89], for which, in assay [1], the GI50 is 4 nM. For the same molecule, the IC50 in assay [2] was found to be 2.8 nM.

As to `CCN(C(=O)c1cc(F)ccc1Oc1nncnc1N1CC2(CCN(CC3CCN(c4cc(OC)c(OC)nn4)CC3)CC2)C1)C(C)C` [Compound 90], the GI50 in assay [1] is 2 nM. In addition, the IC50 in assay [2] stood at 2.1 nM.

In the case of `CC(C)n1nccc1-c1cc(F)ccc1Oc1nncnc1N1CC2(CCN(CC3CCN(c4ccc(C(F)(F)F)nn4)CC3)CC2)C1` [Compound 91], in assay [1], the GI50 came out at 13 nM. Besides, in assay [2], the IC50 turned out to be 3.1 nM.

As to `COc1cc(N2CCC(CN3CCC4(CC3)CN(c3ncnnc3Oc3ccc(F)cc3-c3ccnn3C)C4)CC2)nnc1OC` [Compound 92], the GI50 in assay [1] was 22 nM. Besides, in assay [2], the IC50 is 10.9 nM.

As to `CCN(C(=O)c1cc(F)ccc1Oc1nncnc1N1CC2(CCN(CC3CCN(c4cc(OC)c(OC)nn4)CC3)C2)C1)C(C)C` [Compound 93], in assay [1], the GI50 came to 2 nM. Further, in assay [2], the IC50 came out at 0.6 nM.

Take `CCN(C(=O)c1cc(F)ccc1Oc1nncnc1N1CCC2(CN(CC3CCN(c4cc(OC)c(OC)nn4)CC3)C2)C1)C(C)C` [Compound 94]: the GI50 in assay [1] worked out at 2 nM. For the same molecule, the IC50 in assay [2] stood at 0.8 nM.

Take `CCOc1cc(N2CCC(CN3CCC4(CC3)CN(c3ncnnc3Oc3ccc(F)cc3C(=O)N(CC)C(C)C)C4)CC2)nnc1OCC` [Compound 95]: in assay [1], the 50% growth inhibitory concentration (GI50) stood at 9 nM. Further, in assay [2], the IC50 was determined as 3.2 nM.

With `CCN(C(=O)c1cc(F)ccc1Oc1nncnc1N1CC2(CCN(CC3CCN(c4nnc(OC)cc4OC)CC3)CC2)C1)C(C)C` [Compound 96], in assay [1], the GI50 was determined as 59 nM. The IC50 in assay [2] turned out to be 30 nM.

In the case of `CCN(C(=O)c1cc(F)ccc1Oc1nncnc1N1CC2(CCN(CC3CCN(c4cc(C)c(OC)nn4)CC3)CC2)C1)C(C)C` [Compound 97], in assay [1], the GI50 is 1 nM. For the same molecule, in assay [2], the IC50 was determined as 0.9 nM.

On to `CCN(C(=O)c1cc(F)ccc1Oc1nncnc1N1CC2(CCN(CC3CCN(c4nnc(OC)cc4C)CC3)CC2)C1)C(C)C` [Compound 98], for which the GI50 in assay [1] was 12 nM. Also, in assay [2], the IC50 stood at 7.1 nM.

For `COc1cc(N2CCC(CN3CCC4(CC3)CN(c3ncnnc3Oc3ccc(F)cc3C(=O)N3CCCC3)C4)CC2)nnc1OC` [Compound 99], in assay [1], the GI50 amounted to 26 nM. Besides, in assay [2], the IC50 is 14.7 nM.

For the molecule `COc1cc(N2CCC(CN3CCC4(CC3)CN(c3ncnnc3Oc3ccc(F)cc3C(=O)N3CCC[C@H]3C)C4)CC2)nnc1OC` [Compound 100], in assay [1], the GI50 turned out to be 9 nM. The IC50 in assay [2] was 1.9 nM.

In the case of `COc1cc(N2CCC(CN3CCC4(CC3)CN(c3ncnnc3Oc3ccc(F)cc3-c3ccnn3C(C)C)C4)CC2)nnc1OC` [Compound 101], the GI50 in assay [1] stood at 2 nM. Also, in assay [2], the IC50 was 0.9 nM.

For the molecule `COc1cc(N2CCC(CN3CCC4(CC3)CN(c3ncnnc3Oc3ccc(F)cc3)C4)CC2)nnc1OC` [Compound 102], the GI50 in assay [1] was 28 nM. Further, the IC50 in assay [2] was 15.9 nM.

Take `COc1cc(N2CCC(CN3CCC4(CC3)CN(c3ncnnc3Oc3ccc(Cl)cc3)C4)CC2)nnc1OC` [Compound 103]: the concentration for 50% growth inhibition (GI50) in assay [1] is 107 nM. Further, the IC50 in assay [2] was 114 nM.

Turning to `COc1cc(N2CCC(CN3CCC4(CC3)CN(c3ncnnc3Oc3ccc(F)c5c3cnn5C(C)C)C4)CC2)nnc1OC` [Compound 104], the GI50 in assay [1] was > 3300 nM. Moreover, the IC50 in assay [2] was > 1000 nM.

On to `COc1cc(N2CCC(CN3CCC4(CC3)CN(c3ncnnc3Oc3ccc(F)cc3C(=O)OC(C)C)C4)CC2)nnc1OC` [Compound 106], for which, in assay [1], the GI50 worked out at 7 nM. Moreover, the IC50 in assay [2] was 0.9 nM.

As for `CCN(C(=S)c1cc(F)ccc1Oc1nncnc1N1CC2(CCN(CC3CCN(c4cc(OC)c(OC)nn4)CC3)CC2)C1)C(C)C` [Compound 107], the GI50 in assay [1] stood at 9 nM. Moreover, in assay [2], the IC50 was found to be 3.3 nM.

Consider `CCN(C(=O)c1cc(F)ccc1Oc1nncnc1N1CC2(CCN(CC3CCN(c4cc5c(nn4)OCCO5)CC3)CC2)C1)C(C)C` [Compound 108], for which the GI50 in assay [1] came to 60 nM. For the same molecule, the IC50 in assay [2] turned out to be 21.6 nM.

With `CCN(C(=O)c1cc(F)ccc1Oc1nncnc1N1CC2(CCN(CC3CCN(c4cnnc(OC)c4)CC3)CC2)C1)C(C)C` [Compound 109], in assay [1], the GI50 amounted to 6 nM. In assay [2], the IC50 stood at 7.4 nM.

For the molecule `CCN(C(=O)c1cc(F)ccc1Oc1nncnc1N1CC2(CCN(CC3CCN(c4cc(OC)c(OC)cn4)CC3)CC2)C1)C(C)C` [Compound 110], the GI50 in assay [1] is 3 nM. Besides, the IC50 in assay [2] was determined as 0.7 nM.
